Reference: ChEMBL document CHEMBL4507273 (2021)

Experiments:
[1] = target: Sodium-dependent dopamine transporter (Homo sapiens, UniProt Q01959); experiment: GPCRScan assay: inhibition of DAT; parameters: radioligand conc. used [nm] 3.6 – 16.0, parental cells stable HEK
[2] = target: Cyclin-dependent kinase-like 1 (Homo sapiens) (UniProt Q00532); conditions: Compound concentration 1000.0 nM
[3] = target: T1, Protein kinase C epsilon type (Homo sapiens) (UniProt Q02156); conditions: Compound concentration 1000.0 nM
T1 sequence (whole entry): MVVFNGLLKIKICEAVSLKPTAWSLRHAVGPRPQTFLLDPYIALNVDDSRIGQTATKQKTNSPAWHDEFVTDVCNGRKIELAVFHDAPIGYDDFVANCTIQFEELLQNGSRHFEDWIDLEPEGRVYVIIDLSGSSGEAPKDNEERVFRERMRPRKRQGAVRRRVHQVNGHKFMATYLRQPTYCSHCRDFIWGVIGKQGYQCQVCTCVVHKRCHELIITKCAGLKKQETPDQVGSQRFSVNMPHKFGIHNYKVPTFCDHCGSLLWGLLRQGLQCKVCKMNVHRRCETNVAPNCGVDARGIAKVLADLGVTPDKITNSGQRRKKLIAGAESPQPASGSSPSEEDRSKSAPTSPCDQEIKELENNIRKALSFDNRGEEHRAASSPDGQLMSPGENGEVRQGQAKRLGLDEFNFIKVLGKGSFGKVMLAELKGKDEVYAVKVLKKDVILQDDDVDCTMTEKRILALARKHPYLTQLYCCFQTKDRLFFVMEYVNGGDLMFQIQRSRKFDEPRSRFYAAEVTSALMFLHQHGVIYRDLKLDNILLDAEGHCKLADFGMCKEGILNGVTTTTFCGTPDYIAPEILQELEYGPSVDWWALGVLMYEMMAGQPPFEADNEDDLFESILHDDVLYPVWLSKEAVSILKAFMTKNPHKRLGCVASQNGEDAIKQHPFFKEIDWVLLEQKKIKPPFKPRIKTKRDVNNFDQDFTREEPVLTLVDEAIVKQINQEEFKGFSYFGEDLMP

[4] = target: Serine/threonine-protein kinase MAK (Homo sapiens) (UniProt P20794); conditions: Compound concentration 1000.0 nM
[5] = target: Casein kinase I isoform alpha-like (Homo sapiens) (UniProt Q8N752); conditions: Compound concentration 1000.0 nM
[6] = target: Serine/threonine-protein kinase SIK2 (Homo sapiens) (UniProt Q9H0K1); conditions: Compound concentration 1000.0 nM
[7] = tested on: Epidermal growth factor receptor (Homo sapiens), P00533 [UNDEFINED MUTATION]; conditions: Compound concentration 1000.0 nM
Chain of Epidermal growth factor receptor (Homo sapiens), P00533 [UNDEFINED MUTATION] (P00533 whole entry, looked up, change not shown): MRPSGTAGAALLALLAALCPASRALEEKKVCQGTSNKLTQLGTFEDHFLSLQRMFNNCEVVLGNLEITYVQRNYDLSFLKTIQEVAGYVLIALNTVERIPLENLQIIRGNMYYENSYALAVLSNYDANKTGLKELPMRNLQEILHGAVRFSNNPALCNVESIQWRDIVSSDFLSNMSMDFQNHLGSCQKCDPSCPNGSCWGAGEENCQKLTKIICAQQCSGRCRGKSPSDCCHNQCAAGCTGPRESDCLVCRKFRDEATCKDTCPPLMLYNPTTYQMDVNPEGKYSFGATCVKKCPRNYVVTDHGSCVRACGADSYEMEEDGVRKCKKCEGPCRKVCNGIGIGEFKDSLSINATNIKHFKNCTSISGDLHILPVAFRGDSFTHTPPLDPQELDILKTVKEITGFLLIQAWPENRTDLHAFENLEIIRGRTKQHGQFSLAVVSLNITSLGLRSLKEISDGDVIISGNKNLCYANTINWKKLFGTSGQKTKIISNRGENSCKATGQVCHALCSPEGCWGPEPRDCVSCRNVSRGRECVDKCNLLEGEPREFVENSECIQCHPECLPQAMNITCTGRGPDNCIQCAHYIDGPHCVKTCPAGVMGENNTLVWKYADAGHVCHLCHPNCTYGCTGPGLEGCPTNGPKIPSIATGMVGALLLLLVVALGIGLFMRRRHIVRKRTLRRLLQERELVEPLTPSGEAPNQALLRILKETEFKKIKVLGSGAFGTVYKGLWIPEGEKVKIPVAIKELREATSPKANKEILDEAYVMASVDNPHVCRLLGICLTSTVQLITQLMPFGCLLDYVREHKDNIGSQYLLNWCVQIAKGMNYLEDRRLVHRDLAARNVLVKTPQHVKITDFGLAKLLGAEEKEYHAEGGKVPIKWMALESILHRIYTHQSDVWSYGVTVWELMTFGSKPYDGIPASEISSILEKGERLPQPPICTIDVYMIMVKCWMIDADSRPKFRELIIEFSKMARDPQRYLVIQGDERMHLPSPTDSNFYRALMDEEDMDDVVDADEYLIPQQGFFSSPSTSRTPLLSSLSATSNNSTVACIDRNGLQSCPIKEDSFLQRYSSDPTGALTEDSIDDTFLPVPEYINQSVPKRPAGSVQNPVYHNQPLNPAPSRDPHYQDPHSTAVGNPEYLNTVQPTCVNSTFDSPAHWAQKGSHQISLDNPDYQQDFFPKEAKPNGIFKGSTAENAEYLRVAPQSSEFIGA

[8] = target: Dual specificity protein kinase CLK2 (Homo sapiens) (UniProt P49760); conditions: Compound concentration 1000.0 nM
Chain of Dual specificity protein kinase CLK2 (Homo sapiens) (P49760 whole entry, looked up): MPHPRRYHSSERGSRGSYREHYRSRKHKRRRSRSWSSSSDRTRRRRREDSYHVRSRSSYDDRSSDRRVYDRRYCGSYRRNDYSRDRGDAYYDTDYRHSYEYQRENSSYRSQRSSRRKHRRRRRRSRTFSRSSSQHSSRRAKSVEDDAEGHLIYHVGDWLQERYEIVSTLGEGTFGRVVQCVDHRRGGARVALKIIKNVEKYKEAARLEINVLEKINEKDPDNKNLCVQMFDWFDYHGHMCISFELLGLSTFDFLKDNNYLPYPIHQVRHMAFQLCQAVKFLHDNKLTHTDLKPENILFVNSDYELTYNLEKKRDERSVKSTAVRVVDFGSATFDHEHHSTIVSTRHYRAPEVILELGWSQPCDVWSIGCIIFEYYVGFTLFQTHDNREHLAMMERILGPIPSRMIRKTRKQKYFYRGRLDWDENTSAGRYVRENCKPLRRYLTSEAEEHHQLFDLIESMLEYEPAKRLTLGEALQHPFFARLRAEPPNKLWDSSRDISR

[9] = target: 5-hydroxytryptamine receptor 6 (Homo sapiens) (UniProt P50406); conditions: Compound concentration 10.0 uM
[10] = target: Dual specificity protein kinase CLK3 (Homo sapiens) (UniProt P49761); conditions: Compound concentration 1000.0 nM
[11] = target: Tyrosine-protein kinase JAK3 (Homo sapiens) (UniProt P52333); conditions: Compound concentration 1000.0 nM
[12] = target: MAP kinase-activated protein kinase 2 (Homo sapiens) (UniProt P49137); conditions: Compound concentration 1000.0 nM
[13] = target: Tyrosine-protein kinase receptor TYRO3 (Homo sapiens) (UniProt Q06418); conditions: Compound concentration 1000.0 nM
[14] = tested on: Phosphatidylinositol 4,5-bisphosphate 3-kinase catalytic subunit alpha isoform (Homo sapiens), P42336 [Q546K]; conditions: Compound concentration 1000.0 nM
[15] = target: Mitogen-activated protein kinase kinase kinase kinase 1 (Homo sapiens) (UniProt Q92918); conditions: Compound concentration 1000.0 nM
[16] = target: Ephrin type-B receptor 2 (Homo sapiens) (UniProt P29323); conditions: Compound concentration 1000.0 nM
[17] = target: Rhodopsin kinase GRK7 (Homo sapiens) (UniProt Q8WTQ7); conditions: Compound concentration 1000.0 nM
[18] = target: Cyclin-dependent kinase 7 (Homo sapiens) (UniProt P50613); conditions: Compound concentration 1000.0 nM
[19] = target: Calcium/calmodulin-dependent protein kinase kinase 1 (Homo sapiens) (UniProt Q8N5S9); conditions: Compound concentration 1000.0 nM
Chain of Calcium/calmodulin-dependent protein kinase kinase 1 (Homo sapiens) (Q8N5S9 whole entry, looked up): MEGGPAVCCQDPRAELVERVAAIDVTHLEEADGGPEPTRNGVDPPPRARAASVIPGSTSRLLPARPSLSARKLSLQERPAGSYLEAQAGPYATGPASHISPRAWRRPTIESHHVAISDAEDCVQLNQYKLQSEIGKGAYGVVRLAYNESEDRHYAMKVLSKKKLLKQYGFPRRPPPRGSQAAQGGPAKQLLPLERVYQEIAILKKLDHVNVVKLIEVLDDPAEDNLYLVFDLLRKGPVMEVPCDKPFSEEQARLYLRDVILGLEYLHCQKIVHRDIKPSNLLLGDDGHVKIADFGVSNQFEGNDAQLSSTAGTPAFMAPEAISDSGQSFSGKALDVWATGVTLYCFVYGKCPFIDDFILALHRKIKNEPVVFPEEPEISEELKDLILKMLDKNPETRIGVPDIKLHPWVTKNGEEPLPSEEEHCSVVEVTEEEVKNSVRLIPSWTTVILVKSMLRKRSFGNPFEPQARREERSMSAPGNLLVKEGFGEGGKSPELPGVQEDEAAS

[20] = target: Serine/threonine-protein kinase D3 (Homo sapiens) (UniProt O94806); conditions: Compound concentration 1000.0 nM
[21] = target: Wee1-like protein kinase (Homo sapiens) (UniProt P30291); conditions: Compound concentration 1000.0 nM
Histamine H1 receptor = Histamine H1 receptor (Homo sapiens, UniProt P35367); conditions: Compound concentration 10.0 uM
Chain of Histamine H1 receptor (P35367 whole entry): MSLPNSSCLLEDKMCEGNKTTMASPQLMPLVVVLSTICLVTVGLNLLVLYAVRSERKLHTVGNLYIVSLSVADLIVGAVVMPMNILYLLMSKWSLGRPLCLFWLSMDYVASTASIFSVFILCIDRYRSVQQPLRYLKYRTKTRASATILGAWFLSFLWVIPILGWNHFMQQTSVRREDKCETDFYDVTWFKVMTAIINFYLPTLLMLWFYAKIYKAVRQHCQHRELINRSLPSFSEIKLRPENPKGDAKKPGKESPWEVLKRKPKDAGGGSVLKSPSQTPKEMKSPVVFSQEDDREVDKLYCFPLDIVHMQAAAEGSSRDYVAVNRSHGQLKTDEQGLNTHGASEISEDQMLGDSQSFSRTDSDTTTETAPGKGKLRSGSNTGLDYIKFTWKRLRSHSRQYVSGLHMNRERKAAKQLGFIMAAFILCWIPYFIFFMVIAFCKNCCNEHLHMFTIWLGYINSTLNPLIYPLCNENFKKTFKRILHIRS

[22] = target: Alpha-1D adrenergic receptor (Homo sapiens) (UniProt P25100); conditions: Compound concentration 10.0 uM
Chain of Alpha-1D adrenergic receptor (Homo sapiens) (P25100 whole entry): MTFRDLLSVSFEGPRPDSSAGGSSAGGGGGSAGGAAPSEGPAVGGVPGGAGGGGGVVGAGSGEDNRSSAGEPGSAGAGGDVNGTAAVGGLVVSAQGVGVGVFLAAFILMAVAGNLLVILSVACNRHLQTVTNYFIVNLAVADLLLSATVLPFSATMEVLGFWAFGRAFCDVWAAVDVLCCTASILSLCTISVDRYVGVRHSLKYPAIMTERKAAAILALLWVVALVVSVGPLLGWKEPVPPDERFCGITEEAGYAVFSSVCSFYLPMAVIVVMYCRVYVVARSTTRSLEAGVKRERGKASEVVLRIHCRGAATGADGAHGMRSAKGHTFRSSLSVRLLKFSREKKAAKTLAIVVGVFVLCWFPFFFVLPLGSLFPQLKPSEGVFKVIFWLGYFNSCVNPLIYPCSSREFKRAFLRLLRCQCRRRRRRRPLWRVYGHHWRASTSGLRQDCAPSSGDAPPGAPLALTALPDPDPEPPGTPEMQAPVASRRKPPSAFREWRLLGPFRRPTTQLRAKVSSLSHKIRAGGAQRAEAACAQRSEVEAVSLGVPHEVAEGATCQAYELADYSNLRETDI

[23] = tested on: Epidermal growth factor receptor (Homo sapiens), P00533 [UNDEFINED MUTATION]; conditions: Compound concentration 1000.0 nM; remark: listed apart in the source
[24] = target: Receptor tyrosine-protein kinase erbB-2 (Homo sapiens) (UniProt P04626); conditions: Compound concentration 1000.0 nM
[25] = target: Serine/threonine-protein kinase NIM1 (Homo sapiens) (UniProt Q8IY84); conditions: Compound concentration 1000.0 nM
[26] = target: Ephrin type-B receptor 6 (Homo sapiens) (UniProt O15197); conditions: Compound concentration 1000.0 nM
[27] = target: Casein kinase II subunit alpha (Homo sapiens) (UniProt P68400); conditions: Compound concentration 1000.0 nM
Chain of Casein kinase II subunit alpha (Homo sapiens) (P68400 whole entry, looked up): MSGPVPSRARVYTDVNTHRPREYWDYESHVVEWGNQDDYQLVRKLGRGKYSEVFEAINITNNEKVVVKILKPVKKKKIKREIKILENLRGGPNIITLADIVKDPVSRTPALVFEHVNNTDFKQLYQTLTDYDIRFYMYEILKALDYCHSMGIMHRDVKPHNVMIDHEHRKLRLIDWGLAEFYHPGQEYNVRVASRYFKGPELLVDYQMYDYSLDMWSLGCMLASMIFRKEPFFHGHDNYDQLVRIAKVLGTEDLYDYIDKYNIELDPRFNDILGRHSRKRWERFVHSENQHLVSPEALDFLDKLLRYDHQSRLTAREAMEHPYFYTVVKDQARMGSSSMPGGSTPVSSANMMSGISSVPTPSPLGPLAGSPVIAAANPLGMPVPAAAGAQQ

[28] = target: Alpha-2A adrenergic receptor (Homo sapiens, UniProt P08913); experiment: GPCRScan assay: inhibition of Alpha2A; parameters: radioligand conc. used [nm] 1.0 – 3.0, parental cells stable MDCK
[29] = target: Son of sevenless homolog 2 (Homo sapiens, UniProt Q07890, G12C)
[30] = target: Cyclin-dependent kinase 2 (Homo sapiens) (UniProt P24941); conditions: Compound concentration 1000.0 nM
[31] = target: Dual specificity tyrosine-phosphorylation-regulated kinase 2 (Homo sapiens) (UniProt Q92630); conditions: Compound concentration 1000.0 nM
[32] = target: Tyrosine-protein kinase Fyn (Homo sapiens) (UniProt P06241); conditions: Compound concentration 1000.0 nM
[33] = target: 5-hydroxytryptamine receptor 2A (Homo sapiens, UniProt P28223); experiment: GPCRScan assay: inhibition of 5-HT2A; parameters: radioligand conc. used [nm] 1.2 – 2.4, parental cells HEKT
Chain of 5-hydroxytryptamine receptor 2A (P28223 whole entry): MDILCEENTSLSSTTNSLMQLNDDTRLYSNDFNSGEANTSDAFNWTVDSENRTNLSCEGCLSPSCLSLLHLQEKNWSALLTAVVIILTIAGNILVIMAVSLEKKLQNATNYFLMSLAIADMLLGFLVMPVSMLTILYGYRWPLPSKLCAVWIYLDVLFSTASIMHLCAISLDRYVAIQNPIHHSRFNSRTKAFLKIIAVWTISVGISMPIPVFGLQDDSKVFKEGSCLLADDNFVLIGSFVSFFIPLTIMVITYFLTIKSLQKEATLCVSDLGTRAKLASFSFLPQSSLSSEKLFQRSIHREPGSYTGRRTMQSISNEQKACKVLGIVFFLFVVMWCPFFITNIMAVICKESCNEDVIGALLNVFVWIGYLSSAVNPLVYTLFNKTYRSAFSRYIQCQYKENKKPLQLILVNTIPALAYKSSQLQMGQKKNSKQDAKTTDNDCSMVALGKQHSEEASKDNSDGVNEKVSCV

[34] = target: 5-hydroxytryptamine receptor 1B (Homo sapiens, UniProt P28222); conditions: Compound concentration 10.0 uM

Chain of Sodium-dependent dopamine transporter (Q01959 whole entry): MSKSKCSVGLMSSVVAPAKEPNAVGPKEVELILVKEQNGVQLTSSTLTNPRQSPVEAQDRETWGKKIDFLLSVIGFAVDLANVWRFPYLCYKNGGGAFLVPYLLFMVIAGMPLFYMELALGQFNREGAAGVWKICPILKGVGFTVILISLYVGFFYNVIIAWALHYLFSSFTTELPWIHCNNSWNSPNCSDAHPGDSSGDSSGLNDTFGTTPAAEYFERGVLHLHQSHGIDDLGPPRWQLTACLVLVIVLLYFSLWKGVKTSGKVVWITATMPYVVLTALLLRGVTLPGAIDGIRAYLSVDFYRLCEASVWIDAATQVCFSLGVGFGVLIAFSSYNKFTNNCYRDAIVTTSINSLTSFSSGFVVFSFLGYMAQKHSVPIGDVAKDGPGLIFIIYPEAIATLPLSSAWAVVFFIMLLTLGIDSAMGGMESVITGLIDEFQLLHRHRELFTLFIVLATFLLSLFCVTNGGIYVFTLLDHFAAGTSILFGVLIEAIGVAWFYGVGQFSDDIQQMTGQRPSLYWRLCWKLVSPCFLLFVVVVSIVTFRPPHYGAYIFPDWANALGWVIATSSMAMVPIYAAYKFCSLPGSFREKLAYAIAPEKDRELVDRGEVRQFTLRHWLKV

Row | Structure (SMILES) | Ki ([1]; read-out: Ki) | Ki ([1]; read-out: pKi (converted)) | residual activity [2] | residual activity [3] | residual activity [4] | residual activity [5] | residual activity [6] | residual activity [7] | residual activity [8] | inhibition [9] | residual activity [10] | residual activity [11] | residual activity [12] | residual activity [13] | residual activity [14] | residual activity [15] | residual activity [16] | residual activity [17] | residual activity [18] | residual activity [19] | also measured
1 | CNCc1ccccc1-c1csc([C@@H](C)Nc2nc(C)nc3cc(OC)c(OC)cc23)c1 [BAY-293] | 0.522 µM | 0.479 µM | 93% | 74% | 100% | 100% | 100% | 50% | 98% | -1.41% | 100% | 94% | 83% | 89% | 89% | 83% | 100% | 83% | 63% | 100% | residual activity [20]: 92%; residual activity [21]: 100%; inhibition (Histamine H1 receptor): 49.4%; inhibition [22]: 75%; residual activity [23]: 100%; residual activity [24]: 84%; residual activity [25]: 93%; residual activity [26]: 98%; residual activity [27]: 83%; Ki [28]: 0.381 µM; IC50 [29]: > 20 µM (not active); residual activity [30]: 82%; residual activity [31]: 92%; residual activity [32]: 100%; Ki ([33]; read-out: Ki): 0.133 µM; Ki ([33]; read-out: pKi (converted)): 0.11 µM; inhibition [34]: 66.1%
2 | CNCc1ccccc1-c1csc([C@H](C)Nc2nc(C)nc3cc(OC)c(OC)cc23)c1 [BAY-294] | 1.67 µM | 1.41 µM | 100% | 78% | 97% | 100% | 100% | 64% | 100% | 20.2% | 100% | 99% | 80% | 100% | 84% | 100% | 100% | 89% | 61% | 99% | residual activity [20]: 100%; residual activity [21]: 100%; inhibition (Histamine H1 receptor): 56.7%; inhibition [22]: 81.2%; residual activity [23]: 89%; residual activity [24]: 100%; residual activity [25]: 90%; residual activity [26]: 87%; residual activity [27]: 91%; Ki [28]: 0.127 µM; IC50 [29]: > 20 µM (not active); residual activity [30]: 91%; residual activity [31]: 96%; residual activity [32]: 100%; Ki ([33]; read-out: Ki): 0.0694 µM; inhibition [34]: 75%
